The record followed here is patent US8603990B2, “Grafted macromolecular conjugates of doxorubicin with anticancer activity and method of their preparation” (priority 2006, dated 2013).

Series [1] has as its system mouse T cellular lymphoma EL4. To be noted: for Mice surviving on the 70th day: end of experiment day 70. How it is done: The in vivo experiments involved a model of mouse T cellular lymphoma EL4, the experimental animals were mice (males) of the B/6 species that were subcutaneously implanted with 10^5 tumor cells on day 0. The conjugates were applied intravenously in a dose of 1×15 mg/kg of DOX equivalent. This single application was carried out on the ninth day after the tumor cells transplantation, i.e. at a time when the tumor was palpable, about approx. 400 mm^3 in size.

Series [2] deals with SW620 (human colorectal carcinoma). The series is described as follows: In vitro cytotoxicity, SW620 line. In kind it is cell-based. To be noted: SW-620, SW620 cells, repeated values per sample.
In series [3] the test system is Jurkat. The series is described as follows: In vitro cytotoxicity, Jurkat line. In kind it is cell-based. Conditions: Homo sapiens; Jurkat cells; repeated values per sample.
The target of series [4] is cathepsine B (Homo sapiens, UniProt P07858). Put plainly: Degradation of grafted conjugates by cathepsine B. It is filed as in vitro ADME. To be noted: cathepsine B 5.10^−7 mol/l, pH 6, 37° C., 24 hours. As to the method: The degradation experiments were carried in a phosphate buffer (0.1 M phosphate buffer containing 0.05 M NaCl, pH 6) in the presence of cathepsine B or glutathione in the role of degradation agents, i.e. in the environment modeling intracellular environment (cytoplasm, endosome and secondary lysosome). The grafted polymeric conjugates were dissolved in the phosphate buffer in concentration of 50 mg/ml and immediately before the solutions were placed in a thermostat (37° C.) a stock solution of cathepsine B or glutathione was added to the solutions so that the final concentration of these agents in the incubation medium was 5.10^−7 mol/l and 3.10^−3 mol/l for cathepsine and glutathione, respectively. In predetermined intervals aliquot parts (200 μl) were sampled from the incubation solutions. The samples were desalinated in the PD-10 columns and lyophilized. The molecular weight of the degradation products was measured using the Shimadzu SIL-HT liquid chromatograph fitted with a differential refractometer (Shimadzu RID-10A) and multiangle light dispersion detector (DAWN EOS, Wyatt Technology, USA). The analysis was carried out in a Superose™ 6 column (300×10 mm) (Amersham Bioscience). […] The molecular weight and polydispersity of the copolymer was calculated using the Astra software. […]

Setting [5] is: 1×15 mg/kg DOX equivalent i.v. on day 9.

Values after ≈ are worked out from the molar mass of the structure shown.

Consider “poly(HPMA-co-MA-AH-NHNH2-co-MA-AH-NHN=DOX-co-MA-AH-SS—)-graft-[(SS)-poly(HPMA-co-MA-AH-NHNH2-MA-AH-NHN=DOX)] [Conjugate 3a]”, for which, in series [1] (setting [5]), the Anticancer effect result is given as “very significant anticancer effect” and the “Mice surviving on the 70th day” value stood at 100%. In addition, in series [1] (B/6 mice, EL 4 10^5 cells s.c. day 0, one i.v. dose 15 mg/kg DOX equivalent on day 9), the “Survival: day of animal death or LTS (individual mice)” value was “LTS”.

As for `COc1cccc2c1C(=O)c1c(O)c3c(c(O)c1C2=O)C[C@@](O)(C(=O)CO)C[C@@H]3O[C@H]1C[C@H](N)[C@H](O)[C@H](C)O1` [Dox, doxorubicin], the IC50 in series [2] was determined as 0.003 µg/mL (≈ 0.00552 µM); in series [3], 0.119 µg/mL (≈ 0.219 µM).

With “poly(HPMA-co-MA-AH-NHNH2-MA-AH-NHN=DOX-co-MA-GFLG-NH—)-graft-[(GFLG)-poly(HPMA-co-MA-AH-NHNH2-co-MA-AH-NHN=DOX)] [Conjugate 1d]”, the “Molecular weight of degradation products” value in series [4] is “below the renal filtration limit”. Further, in series [1] (setting [5]), the Anticancer effect entry is on record as “very significant anticancer effect”, the “Weight decrease as a sign of toxicity” value is reported as “no weight decrease” and the “Mice surviving on the 70th day” value was determined as 88%.

What is called IC50 is the concentration needed to halve the response being measured. A low value points to greater potency in that assay.
